# Results taken from patent US7906491B2 (Univisitair Medisch Centrum Utrecht, priority 2002, dated 2011).
# Key:
# [1] = target: T1, Epac1-ΔDEP1 (Homo sapiens, UniProt O95398); test: In vitro GEF assay: Epac activity in the exchange reaction towards Rap (mantGDP-loaded Rap1b); format: biochemical; conditions: in vitro in the exchange reaction towards Rap; note: key: +++: activity comparible to I-007; ++: activity between I-007 and cAMP; +: activity comparible to cAMP; ±: activity less than cAMP
# T1 sequence (O95398 191-923 limits assumed): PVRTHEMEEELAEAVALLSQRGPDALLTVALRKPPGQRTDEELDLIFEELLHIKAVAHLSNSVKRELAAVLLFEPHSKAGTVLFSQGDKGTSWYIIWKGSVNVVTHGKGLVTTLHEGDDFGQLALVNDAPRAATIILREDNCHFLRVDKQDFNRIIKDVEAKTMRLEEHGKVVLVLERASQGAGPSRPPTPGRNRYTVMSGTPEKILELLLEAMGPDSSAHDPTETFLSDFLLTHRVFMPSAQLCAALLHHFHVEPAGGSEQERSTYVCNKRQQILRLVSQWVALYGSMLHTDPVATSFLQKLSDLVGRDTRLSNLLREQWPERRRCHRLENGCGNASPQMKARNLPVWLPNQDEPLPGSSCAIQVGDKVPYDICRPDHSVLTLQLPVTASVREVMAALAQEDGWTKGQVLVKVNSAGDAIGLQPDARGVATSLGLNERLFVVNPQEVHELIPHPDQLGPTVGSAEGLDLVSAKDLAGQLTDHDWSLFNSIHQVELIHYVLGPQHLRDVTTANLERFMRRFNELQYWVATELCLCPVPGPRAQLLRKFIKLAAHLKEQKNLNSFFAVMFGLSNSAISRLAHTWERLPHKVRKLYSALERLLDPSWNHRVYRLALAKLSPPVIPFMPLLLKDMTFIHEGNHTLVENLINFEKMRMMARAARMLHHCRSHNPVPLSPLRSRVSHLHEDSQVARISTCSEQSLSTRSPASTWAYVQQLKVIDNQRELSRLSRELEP
# Procedure: In vitro GEF assays were performed as described (3,16). […] Buffer conditions were 50 mM Tris pH7.4, 150 mM NaCl, 5% glycerol, 5 mM DTE, 60 μM GTP. Reactions were carried out in 96-well plates and measured in a Cary Eclipse from Varian Inc., using the manufacturers software.
# [2] = target: T2, Epac (Homo sapiens, UniProt O95398); test: Relative affinity for Epac (cAMP = 1), in vitro; format: binding; conditions: relative to cAMP = 1
# T2 sequence (O95398 1-923): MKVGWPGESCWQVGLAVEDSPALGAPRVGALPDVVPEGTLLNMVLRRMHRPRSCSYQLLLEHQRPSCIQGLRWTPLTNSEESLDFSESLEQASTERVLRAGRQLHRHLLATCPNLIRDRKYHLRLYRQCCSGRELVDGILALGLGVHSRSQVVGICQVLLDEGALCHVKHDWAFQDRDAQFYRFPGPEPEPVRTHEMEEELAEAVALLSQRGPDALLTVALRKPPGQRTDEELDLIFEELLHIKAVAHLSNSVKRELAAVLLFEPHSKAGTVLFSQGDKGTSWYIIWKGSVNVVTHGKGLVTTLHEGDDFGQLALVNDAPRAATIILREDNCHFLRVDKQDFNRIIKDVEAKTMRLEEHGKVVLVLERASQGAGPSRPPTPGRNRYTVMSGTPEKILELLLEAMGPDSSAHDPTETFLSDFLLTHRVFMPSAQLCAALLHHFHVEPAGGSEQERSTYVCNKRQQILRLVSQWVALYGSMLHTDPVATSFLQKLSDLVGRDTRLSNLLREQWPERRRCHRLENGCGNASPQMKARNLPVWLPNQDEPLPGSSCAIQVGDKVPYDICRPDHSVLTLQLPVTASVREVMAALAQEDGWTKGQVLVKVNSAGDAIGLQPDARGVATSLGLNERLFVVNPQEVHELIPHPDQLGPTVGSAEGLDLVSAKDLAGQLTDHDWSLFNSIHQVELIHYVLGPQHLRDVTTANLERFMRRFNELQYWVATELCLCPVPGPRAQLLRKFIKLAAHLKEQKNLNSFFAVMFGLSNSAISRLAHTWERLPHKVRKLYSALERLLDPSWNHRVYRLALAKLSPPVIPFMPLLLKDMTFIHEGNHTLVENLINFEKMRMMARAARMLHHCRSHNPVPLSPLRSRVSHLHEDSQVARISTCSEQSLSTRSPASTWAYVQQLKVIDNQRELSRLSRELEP
# [3] = test system: PKAII; test: Relative affinity for PKAII (cAMP = 1), in vitro; format: binding; conditions: relative to cAMP = 1
# [4] = test system: PKAI; test: Relative affinity for PKAI (cAMP = 1), in vitro; format: binding; conditions: relative to cAMP = 1
Substance,Relative activity of Epac* [1],Relative affinity CAMP = 1 Epac [2],Relative affinity CAMP = 1 PKAII [3],Relative affinity CAMP = 1 PKAI [4]
"8-(2-amino-phenylthio)-2′-O-methyladenosine-3′,5′-cyclic monophosphate [Compound I-107]",+,1.3,0.0001,0.004
"8-(4-chloro-phenylthio)-2′-deoxyadenosine-3′,5′-cyclic monophosphate [Compound I-003]",+,0.2,0.001,0.001
"8-(4-fluoro-phenylthio)-2′-O-methyladenosine-3′,5′-cyclic monophosphate [Compound I-102]",+++,4.5,0.0004,0.02
"8-(4-methoxy-phenylthio)-2′-O-methyladenosine-3′,5′-cyclic monophosphate [Compound I-112]",+++,6.5,0.0006,0.025
"8-(4-methyl-cumarinyl-7-thio)-2′-O-methyladenosine-3′,5′-cyclic monophosphate [Compound I-103]",±,1.8,0.0005,0.03
"8-(4-nitro-phenylthio)-2′-O-methyladenosine-3′,5′-cyclic monophosphate [Compound I-106]",++,1.2,0.0002,0.02
"8-(naphtyl-2-thio)-2′-O-methyladenosine-3′,5′-cyclic monophosphate [Compound I-104]",++,2.3,0.001,0.03
"8-benzylthio-2′-O-methyladenosine-3′,5′-cyclic monophosphate [Compound I-108]",+,1.3,0.0007,0.04
"8-bromo-2′-O-methyladenosine-3′,5′-cyclic monophosphate [Compound I-006]",++,0.9,0.003,0.0015
"8-bromo-2′-deoxyadenosine-3′,5′-cyclic monophosphate [Compound I-002]",+,0.12,0.00001,0.01
"8-isopropylthio-2′-O-methyladenosine-3′,5′-cyclic monophosphate [Compound I-113]",+,0.7,0.0004,0.028
"8-methylamino-2′-O-methyladenosine-3′,5′-cyclic monophosphate [Compound I-100]",±,<0.5,0.0001,0.0014
"8-methylthio-2′-O-methyladenosine-3′,5′-cyclic monophosphate [Compound I-101]",+,1.3,0.0006,0.012
"8-n-hexylthio-2′-O-methyladenosine-3′,5′-cyclic monophosphate [Compound I-109]",++,1.2,0.0008,0.03
"8-phenylthio-2′-O-methyladenosine-3′,5′-cyclic monophosphate [Compound I-105]",++,3.6,0.0005,0.02
